# Reference: patent publication US11141410B2 (MERCK SHARP & DOHME CORP., priority 2015, dated 2021)
# Legend:
# MRSA COL (MB5393) [1] = assay: TarO Inhibitor/β-Lactam Synergy Assay (growth, OD600); type: cell-based, Staphylococcus aureus; details: for MITC95 TarO inhibitor + 4 μg/mL IPM; Bacteria: SA_MB5393: in combination with 4 μg/mL imipenem (IPM); for MITC95 TarO inhibitor + 8 μg/mL DCX; Bacteria: SA_MB5393: in combination with 8 μg/mL dicloxacillin (DCX)
# Procedure: The TarO inhibitor/β-lactam synergy assay was performed to measure the re-sensitization of methicillin-resistant Staphylococci bacteria (MB5393: MRSA COL) to β-lactam antibiotics by TarO inhibitors. MRSA COL is a hospital-acquired penicillinase-negative clinically isolated strain commonly used in Staphylococcus aureus studies and is fully resistant to the antimicrobial bioactivity of β-lactam antibiotics, including but not limited to imipenem and dicloxacillin. […] MRSA COL is fully refractory to β-lactam antibiotic effect at the current clinical breakpoint concentrations and as such MRSA COL is fully viable at these concentrations.
# The β-lactam antibiotic concentration was fixed at the clinical breakpoint (imipenem 4 μg/ml or dicloxacillin 8 μg/ml) and the TarO inhibitors were titrated by 2 fold starting from the highest concentration of 200 μM with final DMSO concentration of 2% in the assay. 5×10^5 colony forming unit of MRSA COL in cation-adjusted Mueller Hinton broth (CAMHB) was then mixed and the assay plate was incubated for 20 hours at 37° C. without shaking. After 20 hours, the optical density at 600 nm (OD600) was read for all wells to determine relative growth of MRSA COL.
# MRSA COL (MB5393) [2] = assay: as above; type: cell-based; details: Staphylococcus aureus, TarO inhibitor alone, >200 μM = 95% growth inhibition not achieved, 20 hours at 37° C., read-out: MITC95 TarO inhibitor alone, Bacteria: SA_MB5393
Structure (SMILES),MITC95 TarO inhibitor + 4 μg/mL IPM; Bacteria: SA_MB5393 (MRSA COL (MB5393) [1]),MITC95 TarO inhibitor + 8 μg/mL DCX; Bacteria: SA_MB5393 (MRSA COL (MB5393) [1]),IC95 (MRSA COL (MB5393) [2]),"MITC95 concentration of β-lactam antibiotic alone (MRSA COL (MB5393) [1]; β-lactam alone, MRSA COL)"
"C[C@@H]1CN(C(=O)NCc2cncc3ccccc23)C(=O)OC1c1cc(C(F)(F)F)cc(C(F)(F)F)c1 (stereo in doubt) [Example 93, (5R,6S)-6-(3,5-bis(trifluoromethyl)phenyl)-N-(isoquinolin-4-ylmethyl)-5-methyl-2-oxo-1,3-oxazinane-3-carboxamide]",0.13 µM,0.50 µM,> 200 µM,
"C[C@H]1[C@@H](c2cc(C(F)(F)F)cc(C(F)(F)F)c2)OC(=O)N1C(=O)NCc1cncc2ccccc12 [Example 1, (4S,5R)-5-(3,5-bis(trifluoromethyl)phenyl)-N-(isoquinolin-4-ylmethyl)-4-methyl-2-oxooxazolidine-3-carboxamide]",0.03 µM,0.39 µM,> 200 µM,
"C[C@H]1[C@@H](c2cc(C(F)(F)F)cc(C(F)(F)F)c2)OC(=O)N1C(=O)NCc1cccc2ccnn12 [Example 2, (4S,5R)-5-[3,5-bis(trifluoromethyl)phenyl]-4-methyl-2-oxo-N-(pyrazolo[1,5-a]pyridin-7-ylmethyl)-1,3-oxazolidine-3-carboxamide]",0.01 µM,0.21 µM,> 200 µM,
"C[C@H]1[C@@H](c2cc(F)cc(C(F)(F)F)c2)OC(=O)N1C(=O)NCc1ccccc1[N+](=O)[O-] [Example 3, (4S,5R)-5-[3-fluoro-5-(trifluoromethyl)phenyl]-4-methyl-N-(2-nitrobenzyl)-2-oxo-1,3-oxazolidine-3-carboxamide]",0.33 µM,2.60 µM,> 200 µM,
"C[C@H]1[C@@H](c2cc(C(F)(F)F)cc(C(F)(F)F)c2)OC(=O)N1C(=O)NCc1cncc2cccnc12 [Example 4, (4S,5R)-5-[3,5-bis(trifluoromethyl)phenyl]-4-methyl-N-(1,6-naphthyridin-8-ylmethyl)-2-oxo-1,3-oxazolidine-3-carboxamide]",0.13 µM,0.39 µM,> 200 µM,
"C[C@H]1[C@@H](c2cc(F)cc(C(F)(F)F)c2)OC(=O)N1C(=O)NCc1ccccc1OC(F)F [Example 5, (4S,5R)-N-[2-(difluoromethoxy)benzyl]-5-[3-fluoro-5-(trifluoromethyl)phenyl]-4-methyl-2-oxo-1,3-oxazolidine-3-carboxamide]",0.09 µM,0.71 µM,> 200 µM,
"C[C@H]1[C@@H](c2cc(F)cc(C(F)(F)F)c2)OC(=O)N1C(=O)NCc1cccc2ccccc12 [Example 6, (4S,5R)-5-[3-fluoro-5-(trifluoromethyl)phenyl]-4-methyl-N-(naphthalen-1-ylmethyl)-2-oxo-1,3-oxazolidine-3-carboxamide]",0.01 µM,0.02 µM,> 200 µM,
"C[C@H]1[C@@H](c2cc(F)cc(C(F)(F)F)c2)OC(=O)N1C(=O)NCc1ccccc1C(F)(F)F [Example 7, (4S,5R)-5-[3-fluoro-5-(trifluoromethyl)phenyl]-4-methyl-2-oxo-N-[2-(trifluoromethyl)benzyl]-1,3-oxazolidine-3-carboxamide]",0.05 µM,0.33 µM,> 200 µM,
"COc1ccccc1CNC(=O)N1C(=O)O[C@H](c2cc(F)cc(C(F)(F)F)c2)[C@@H]1C [Example 8, (4S,5R)-5-[3-fluoro-5-(trifluoromethyl)phenyl]-N-(2-methoxybenzyl)-4-methyl-2-oxo-1,3-oxazolidine-3-carboxamide]",0.13 µM,1.32 µM,> 200 µM,
"C[C@H]1[C@@H](c2cc(F)cc(C(F)(F)F)c2)OC(=O)N1C(=O)NCc1cccc(N(C)C)c1 [Example 9, (4S,5R)-N-[3-(dimethylamino)benzyl]-5-[3-fluoro-5-(trifluoromethyl)phenyl]-4-methyl-2-oxo-1,3-oxazolidine-3-carboxamide]",0.22 µM,1.65 µM,> 200 µM,
"C[C@H]1[C@@H](c2cc(C(F)(F)F)cc(C(F)(F)F)c2)OC(=O)N1C(=O)NCc1cccc2nccnc12 [Example 10, (4S,5R)-5-[3,5-bis (trifluoromethyl)phenyl]-4-methyl-2-oxo-N-(quinoxalin-5-ylmethyl)-1,3-oxazolidine-3-carboxamide]",0.06 µM,0.37 µM,> 200 µM,
"C[C@H]1[C@@H](c2cc(F)cc(C(F)(F)F)c2)OC(=O)N1C(=O)NCc1cccc2c1OCCO2 [Example 11, (4S,5R)-N-(2,3-dihydro-1,4-benzodioxin-5-ylmethyl)-5-[3-fluoro-5-(trifluoromethyl)phenyl]-4-methyl-2-oxo-1,3-oxazolidine-3-carboxamide]",0.13 µM,1.42 µM,> 200 µM,
"C[C@H]1[C@@H](c2cc(F)cc(C(F)(F)F)c2)OC(=O)N1C(=O)NCc1cccc2cc[nH]c12 [Example 12, (4S,5R)-5-[3-fluoro-5-(trifluoromethyl)phenyl]-N-(1H-indol-7-ylmethyl)-4-methyl-2-oxo-1,3-oxazolidine-3-carboxamide]",0.25 µM,1.56 µM,> 200 µM,
"CCOc1ccccc1CNC(=O)N1C(=O)O[C@H](c2cc(F)cc(C(F)(F)F)c2)[C@@H]1C [Example 13, (4S,5R)-N-(2-ethoxybenzyl)-5-[3-fluoro-5-(trifluoromethyl)phenyl]-4-methyl-2-oxo-1,3-oxazolidine-3-carboxamide]",0.06 µM,0.35 µM,> 200 µM,
"C[C@H]1[C@@H](c2cc(F)cc(C(F)(F)F)c2)OC(=O)N1C(=O)NCc1nccc2sccc12 [Example 14, (4S,5R)-5-[3-fluoro-5-(trifluoromethyl)phenyl]-4-methyl-2-oxo-N-(thieno[3,2-c]pyridin-4-ylmethyl)-1,3-oxazolidine-3-carboxamide]",0.49 µM,5.63 µM,> 200 µM,
"C[C@H]1[C@@H](c2cccc(C(F)(F)F)c2)OC(=O)N1C(=O)NCc1cncc2cccnc12 [Example 15, (4S,5R)-4-methyl-N-(1,6-naphthyridin-8-ylmethyl)-2-oxo-5-[3-(trifluoromethyl)phenyl]-1,3-oxazolidine-3-carboxamide]",0.98 µM,4.69 µM,> 200 µM,
"Cc1ccccc1CNC(=O)N1C(=O)O[C@H](c2cc(F)cc(C(F)(F)F)c2)[C@@H]1C [Example 16, (4S,5R)-5-[3-fluoro-5-(trifluoromethyl)phenyl]-4-methyl-N-(2-methylbenzyl)-2-oxo-1,3-oxazolidine-3-carboxamide]",0.38 µM,3.52 µM,> 200 µM,
"C[C@H]1[C@@H](c2cc(C(F)(F)F)cc(C(F)(F)F)c2)OC(=O)N1C(=O)NCc1nccc2ccoc12 [Example 17, (4S,5R)-5-[3,5-bis(trifluoromethyl)phenyl]-N-(furo[2,3-c]pyridin-7-ylmethyl)-4-methyl-2-oxo-1,3-oxazolidine-3-carboxamide]",0.39 µM,4.30 µM,> 200 µM,
"C[C@H]1[C@@H](c2cc(C(F)(F)F)cc(C(F)(F)F)c2)OC(=O)N1C(=O)NCC1CCCc2ccccc21 (stereo partly drawn) [Example 19, (4S,5R)-5-[3,5-bis(trifluoromethyl)phenyl]-4-methyl-2-oxo-N-(1,2,3,4-tetrahydronaphthalen-1-ylmethyl)-1,3-oxazolidine-3-carboxamide]",0.15 µM,1.45 µM,> 200 µM,
"Cc1nc(C(C)C)sc1CNC(=O)N1C(=O)O[C@H](c2cc(F)cc(C(F)(F)F)c2)[C@@H]1C [Example 20, (4S,5R)-5-[3-fluoro-5-(trifluoromethyl)phenyl]-4-methyl-N-{[4-methyl-2-(1-methylethyl)-1,3-thiazol-5-yl]methyl}-2-oxo-1,3-oxazolidine-3-carboxamide]",0.43 µM,3.65 µM,> 200 µM,
"Cc1onc(-c2c(Cl)cccc2Cl)c1C(=O)N[C@@H]1C(=O)N2[C@@H]1SC(C)(C)[C@@H]2C(=O)O [dicloxacillin, reference compound]",,,,128 µg/mL
